Earlier results, collected in patent US7771757B2, “Nasal irrigation solutions and methods of using same” (Himalayan International Institute of Yoga Science and …, priority 2002, dated 2010).

What was measured:
common cold = settings: variously administered forms; in many cases

Row | Compound | activity in vitro against the growth of organisms (streptococci) | activity in vitro against the growth of organisms (staphylococci) | activity in vitro against the growth of organisms (pneumococci) | reduction of the duration of common cold symptoms (common cold)
1 | COc1ccc2cc3[n+](cc2c1OC)CCc1cc2c(cc1-3)OCO2 [berberine] | active | active | active | 
2 | zinc |  |  |  | by half
